SMILES strings stand for the structures.

The test system of data set [1] is visual chromophore regeneration in C57BL6J mouse eyes. Put plainly: visual chromophore recovery assay (ocular 11-cis-retinal by HPLC after bleach). In kind it is in vivo. The note with it: for visual chromophore regeneration: 10 μg/mouse oral gavage 24 h before light exposure (95% bleach), 6 h dark adaptation; for effect on 11-cis-retinal recovery / visual cycle function: 500 μg (0.5 mg/mouse) oral gavage 24 h before light exposure. As for the experimental part:
FIG. 4 illustrates inhibition of visual chromophore regeneration in C57BL6J mouse eyes by MB compounds. The MB drugs were administrated to mice by oral gavage 24 h prior to light exposure for 10 min. Then all mice recovered under darkness for 6 h.
(§1) Abca4^−/−Rdh8^−/− mice on a C57BL/6J background were generated as previously described. Male and female WT mice with C57BL/6J backgrounds were obtained from The Jackson Laboratory. Abca4^−/−Rdh8^−/− mice used in this study were homozygous for the Leu450 allele of Rpe65 as determined by a genotyping protocol published previously and free of Crb1/rd8 and rd/rd mutations Animals were housed either in the animal facility at the Case Western Reserve University School of Medicine, where they received a standard chow diet (LabDiet 5053) and were maintained under a 12-h light (˜300 lux) and 12-h dark cycle or at the Cole Eye Institute animal facility where they were. Mice were dark adapted overnight prior to all experiments. A cohort of Rdh8^−/−Abca4^−/− or C57BL/6J mice was used when they reached the age of 1 to 2 months, and both sexes were used evenly. All tested primary amines were suspended in 100 μl soybean oil with less than 10% (v/v) DMSO and were administered by oral gavage with a 22-gauge feeding needle. Experimental manipulations in the dark were done under dim red light transmitted through a Kodak No. 1 Safelight Filter (transmittance >560 nm).
After bright light exposure resulting in photoactivation of 95% of rhodopsin, mice were kept in the dark for 6 h. Then, the animals were euthanized and their eyes were collected and homogenized in 10 mM sodium phosphate buffer, pH 7.4, containing 50% methanol (v/v) and 40 mM hydroxylamine. The resulting mixture was extracted with 4 ml of hexanes.
Next, we tested the effects of the MB compound series on retinoid cycle function in the living mouse. […] After the light treatment, mice were allowed to dark adapt for 6 h before their ocular retinoid content was determined by HPLC. […] To examine the possibility that the lack of MB-008 efficacy at 24 h was due to insufficient concentrations resulting from a shorter elimination half-life or poorer bioavailability, we repeated the experiment with the mice subjected to light exposure 4 h after MB-008 administration. A 100 μg dose of MB-008 suppressed visual chromophore regeneration by ˜80%, supporting the idea that the retinal concentration of MB-008 could be sub-effective at the longer post-treatment light challenge.

For another data set, the system named is Abca4−/−Rdh8−/− mice. Put plainly: protection against light-induced retinal degeneration (OCT, ONL thickness). In kind it is in vivo, mouse. As for the experimental part:
FIGS. 7(A-B) illustrate protective effects of MB compounds against light-induced retinal degeneration in Abca4^−/−Rdh8^−/− mice. Drugs were administrated at the indicated doses to 4-6 week-old Abca4^−/−Rdh8^−/− mice (weight ˜20 g) by oral gavage. After a 24 h dark adaptation, mice were exposed to 10,000 lux light for 30 min and then returned to a dark environment for 3 days. (A) Representative OCT images of mice treated with MB compounds. A dramatic decrease in the ONL indicates advanced retinal degeneration. The black scale beside the DMSO image represents 50 μm. (B) Retinal protective effects exerted by MB compounds as quantified by average ONL thickness. Only non-scattering ONL layers were measured. For images in which the ONL layer boundary was obscured due to light scattering, the ONL length was recorded as 0 μm. Error bars represent standard deviations; n=3-5 for each group.
as §1
After dark adaptation for 24 h, Abca4^−/−Rdh8^−/− mice with pupils dilated by 1% tropicamide were exposed to fluorescent light (10,000 lux; 150 W spiral lamp; Commercial Electric) for 30 min in a white paper bucket (Papersmith) and then kept in the dark for an additional 3 days. Development of retinal degeneration was then determined by ultra-high-resolution spectral domain OCT (SD-OCT; Bioptigen) and ERG as previously described.
To examine the ability of […] cause retinal damage in the absence of treatment with protective agents. Three days later retinas were imaged in vivo by optical coherence tomography, with preservation of outer nuclear layer thickness and light scattering properties serving as markers for retinal health. MB-001, which is capable of preventing light-induced retinal degeneration through both direct RPE65 inhibition as well as retinal sequestration served as a positive control for these experiments.

Another data set deals with RPE65 (Bos taurus, UniProt Q28175). Put plainly: in vitro retinoid isomerase activity assay with bovine RPE microsomes. The note with it: for times more potent compared to emixustat (racemic): RPE65 inhibition, bovine RPE microsomes; for inhibition against retinoid isomerization: up to concentrations of 50 μM.
RPE65, sequence (Q28175 whole entry): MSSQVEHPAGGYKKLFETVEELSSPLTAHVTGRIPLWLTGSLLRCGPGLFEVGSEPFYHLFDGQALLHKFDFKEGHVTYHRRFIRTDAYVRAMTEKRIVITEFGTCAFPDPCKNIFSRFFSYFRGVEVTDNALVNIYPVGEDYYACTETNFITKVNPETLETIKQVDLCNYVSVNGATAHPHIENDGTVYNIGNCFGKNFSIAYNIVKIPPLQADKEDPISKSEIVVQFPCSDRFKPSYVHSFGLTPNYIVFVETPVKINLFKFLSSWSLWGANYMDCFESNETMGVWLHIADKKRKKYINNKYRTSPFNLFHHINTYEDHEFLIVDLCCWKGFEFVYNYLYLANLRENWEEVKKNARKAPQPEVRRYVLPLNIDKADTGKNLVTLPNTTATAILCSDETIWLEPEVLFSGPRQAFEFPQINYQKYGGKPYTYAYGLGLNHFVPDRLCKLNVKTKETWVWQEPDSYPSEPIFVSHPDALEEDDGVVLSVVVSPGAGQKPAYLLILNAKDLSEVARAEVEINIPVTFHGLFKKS
In the next data set the test system is C57BL/6J mice. The data set can be described thus: in vivo dark-adapted ERG recordings after bleach. The note with it: gavage 1 day before bleach, doses indicated effective by retinoid analysis. The arrangement: species or system mouse. As for the experimental part: FIG. 5 illustrates ERG responses of mice treated with visual cycle modulators. Oral gavage was used to administer vehicle or MB compounds to mice 24 h prior to 10 min light exposure followed by 6 h of dark adaptation. Dark-adapted ERGs were obtained to strobe flash stimuli.
C57BL/6J mice aged 1.5-4 months were anesthetized with ketamine (80 mg/kg) and xylazine (16 mg/kg) after overnight dark adaptation. Mydriatic eye drops were used to dilate the pupil (1% tropicamide; 2.5% phenylephrine). ERGs were obtained using an active electrode that contacted the corneal surface; needle electrodes placed in the cheek and tail provided reference and ground leads, respectively. Strobe stimuli were presented to the dark-adapted eye in an LKC (Gaithersburg, MD) ganzfeld. Responses were amplified, averaged and stored using an LKC UTAS E-3000 signal averaging system.
Baseline dark-adapted ERGs were recorded from each mouse. After a minimum 1 day interval, MB compounds or vehicle were administered by gavage at 9 a.m. The next morning, mydriatic eye drops were used to dilate the pupils and mice were then exposed to a 10-minute 10,000 lux bleach. Mice were dark-adapted for 6 hours, after which ERGs were recorded.
We next examined the impact of these compounds on retinal function, measured using the electroretinogram (ERG). FIG. 5 presents a family of dark-adapted ERGs measured 6 hours after mice underwent a 95% bleach presented 1 day following gavage administration of vehicle or MB compound molecules at doses indicated to be effective by retinoid analysis. […] In comparison, mice administered with MB compound molecules had had reduced amplitude ERGs indicative of incomplete bleaching recovery. […] In response to higher luminance stimuli, reproducible responses were observed. That these reflect dark-adapted cone-mediated responses is supported by their similarity to responses obtained from transducin KO mice which lack rod-mediated activity, while retaining normal cone-mediated responses, and have a very similar ERG phenotype.

Data set [2] can be described thus: identification of atRAL Schiff base conjugates with MB compounds in mouse eyes. The note with it: Abca4−/−Rdh8−/− mice, 50 mg/kg oral gavage, bright light exposure 10 min; mass spectrometry versus standards. Type of data set: in vivo. As for the experimental part: FIGS. 6(A-B) illustrate identification of retinal Schiff base conjugates in Abca4^−/− Rdh8^−/− mice treated with MB-005 and MB-006. Following drug administration, mice were exposed to intense light for 10 min. After a 30 min recovery under darkness, animals were sacrificed and retinoids were extracted from the eyes. (A, B) Shown in the top panels are selective ion chromatograms for MB-005-retinal conjugates (A, at m/z=572.6) and MB-006-retinal conjugates (B, at m/z=588.6). Panels on the bottom show the mass spectra of the peaks coinciding with the retention times of their authentic standards. The insets display the MS/MS fragmentation patterns of the two imines, which were identical to the corresponding standards.
MB-005 or MB-006 (50 mg/kg) were administrated by oral gavage to Abca4^−/−Rdh8^−/− mice 24 h prior to light exposure. After exposure to fluorescent light for 10 min, animals were euthanized and their eyes were collected and homogenized in acetonitrile. After centrifugation, the supernatant was concentrated to 400 μl under vacuum. […]
With the effects of these compounds on visual cycle function established we next sought to examine their ability to form retinal-Schiff base conjugates in vivo. […] Retinoids were extracted and analyzed by mass spectrometry. […]

The mark [3] stands for this setting: 1 mg per mouse oral gavage 24 h before light.

Procedure for RPE65: Primary amines were pre-incubated with bovine RPE microsomes at room temperature for 5 min, then all-trans-retinol was added and the mixtures were incubated at 37° C. All incubation mixtures were quenched by the addition of methanol after 1 h of incubation. Inhibition of RPE65 enzymatic activity was measured as a decline in 11-cis-retinol production.
Synthesized primary amine (1 μl in DMF, with the final concentration ranging between 50 nM and 50 μM) was added to 10 mM Bis-Tris propane/HCl buffer, pH 7.4, containing 150 μg RPE microsomes, 1% BSA, 1 mM disodium pyrophosphate, and 20 μM aporetinaldehyde-binding protein 1 (CRALBP). The resulting mixture was pre-incubated at room temperature for 5 min. Then, all-trans-retinol (1 μl in DMF, at a final concentration of 20 μM) was added. The resulting mixture was incubated at 37° C. for 1 h. The reaction was quenched by adding 300 μl methanol, and products were extracted with 300 μl hexanes. Production of 11-cis-retinol was quantified by normal-phase HPLC with 10% (v/v) EtOAc in hexanes as the eluent at a flow rate of 1.4 ml/min. Retinoids were detected by monitoring their absorbance at 325 nm and quantified based on a standard curve representing the relationship between the amount of synthetic 11-cis-retinol standard and the area under the corresponding chromatographic peak.
To test these structural predictions, we examined the inhibitory activity of the compounds against RPE65 activity in an in vitro retinoid isomerase assay using bovine RPE microsomes as the enzyme source.

For orientation: IC50 means the point on the concentration scale where inhibition reaches its midpoint. A low value points to greater potency in that assay. For the compound `CCCC(CCO)COc1cccc(C(O)CCN)c1` (mixture of isomers) [MB-008, 3-((3-(3-Amino-1-hydroxypropyl)phenoxy)methyl)hexan-1-ol], in data set [1], the visual chromophore regeneration result is reported as “recovered visual chromophore to a level comparable to vehicle-treated mice”. Moreover, in data set [1] (100 μg dose, light exposure 4 h after administration), the “suppression of visual chromophore regeneration” value is on record as roughly 80%. In addition, the “suppression in visual cycle function” value in data set [1] (ten-fold higher dose than 10 μg, oral gavage 24 h before light exposure, 6 h dark) is recorded as 30%. The “protection against light-induced retinal degeneration” value in the data set on Abca4−/−Rdh8−/− mice (doses as high as 0.25 mg, administered 24 h prior to the light challenge) was “poorly protective”. Also, the “effect of shortening the duration between administration and light challenge on protection” value with Abca4−/−Rdh8−/− mice (from 24 to 6 h) is “substantially improved the protective effects”. Also, in the data set on Abca4−/−Rdh8−/− mice (shorter time period (6 h), dose ten-times higher than that used for MB-004), the “protection against light-induced retinal degeneration” value is “full protection”. Moreover, at RPE65, the midpoint of inhibition, the IC50, lay at 189 ± 31 nM and the “times more potent compared to emixustat (racemic)” value is roughly 1.2 times.
Consider `CC1=C(COc2cccc([C@H](O)CCN)c2)C(C)(C)CCC1` [MB-001, reference compound], for which, in the data set on C57BL/6J mice, the “dark-adapted ERG 6 hours after 95% bleach” value is given as “responses to low luminance stimuli that were not different from background noise levels”. Moreover, in the data set on Abca4−/−Rdh8−/− mice (50 μg oral gavage 24 h before light, positive control), the “protection against light-induced retinal degeneration” value is “fully protective”.
Consider `CCCC(CCC)COc1cccc([C@H](O)CCN)c1` [MB-004], for which the visual chromophore regeneration result in data set [1] is reported as “dramatically suppressed visual chromophore regeneration”. For the same compound, in the data set with C57BL/6J mice, the “dark-adapted ERG 6 hours after 95% bleach” value is given as “responses to low luminance stimuli that were not different from background noise levels”. Moreover, in the data set with Abca4−/−Rdh8−/− mice (25 μg oral gavage 24 h before 10,000 lux light, OCT 3 days later), the “protective effect relative to MB-001” value is listed as “approximately 80%”. At RPE65, 106 ± 16 nM corresponded to half-maximal inhibition (IC50) and the “times more potent compared to emixustat (racemic)” value is on record as “approximately 2.2 times”.
As to `CC(C)c1cc(OCC2CCCCC2)cc(C(O)CCN)c1` (stereo not drawn) [MB-006, 3-Amino-1-(3-(cyclohexylmethoxy)-5-isopropylphenyl)propan-1-ol], the “effect on 11-cis-retinal recovery / visual cycle function” value in data set [1] (6 h dark) is recorded as “strongly suppressed visual cycle function”. Further, the “visual chromophore production, % of the vehicle control” value was roughly 30% in data set [1] (500 μg oral gavage 24 h before light exposure) and roughly 20% in data set [1] (1000 μg oral gavage 24 h before light exposure). Besides, the “dark-adapted ERG 6 hours after 95% bleach” value in the data set with C57BL/6J mice is recorded as “less incomplete recovery”. Moreover, the “retinal Schiff base adducts in eye extracts” value in data set [2] was “contained compounds matching the expected molecular weight of the respective Schiff base adducts”. Moreover, the “protection against light-induced retinal degeneration” value was “not” with Abca4−/−Rdh8−/− mice (0.5 mg per mouse oral gavage 24 h before light) and “protective” in the data set with Abca4−/−Rdh8−/− mice (setting [3]). At RPE65, the “inhibition against retinoid isomerization” value is reported as “minimal or no inhibition”.
Take `CC1=C(COc2cc(C(C)C)cc(C(O)CCN)c2)C(C)(C)CCC1` (stereo not drawn) [MB-007, 3-Amino-1-(3-isopropyl-5-((2,6,6-trimethylcyclohex-1-en-1-yl)methoxy)phenyl)propan-1-ol]: the “effect on 11-cis-retinal recovery / visual cycle function” value in data set [1] (6 h dark) is reported as “minimal effects”. Besides, the “inhibition of 11-cis-retinal recovery (suppression of visual chromophore regeneration)” value in data set [1] (two-fold higher dose than 500 μg (1 mg per mouse), oral gavage 24 h before light exposure) was roughly 50%. The “protection against light-induced retinal degeneration” value with Abca4−/−Rdh8−/− mice (setting [3]) is “no more protective than vehicle control”. The “inhibition against retinoid isomerization” value against RPE65 is on record as “minimal or no inhibition”.

(Values after patent publication US12144788B2, “Visual cycle modulators” (CASE WESTERN RESERVE UNIVERSITY, priority 2017, dated 2024).)
